According to patent publication US7973072B2, “Substituted benzo-condensed cyclohexanone derivatives and the use thereof for medicament production” (Gruenenthal GmbH, priority 2005, dated 2011):

Tests used:
[1] = biological target: T1, vanilloid receptor 1 (VR1/TRPV1) of the rat (Rattus norvegicus, UniProt O35433); assay: FLIPR Ca2+ functional study on rat vanilloid receptor 1 (rat dorsal root ganglia cells or CHO K1 cells transfected with rat VR1); assay type: cell-based; settings: for activation at 10 µM / inhibition at 10 µM: CHO-K1; for activation at 10 µM / inhibition at 10 µM / VR1 (rat) (% stimulation compared to 10 μM CP) / VR1 (rat) (% inhibition compared to 10 μM CP): test compound 10 μM; for activation at 10 µM / VR1 (rat) (% stimulation compared to 10 μM CP): % activation based on Ca2+ signal after 10 μM capsaicin (CP); for activation at 10 µM: read-out: VR1 (rat) (% stimulation compared to 10 μM CP); for inhibition at 10 µM / VR1 (rat) (% inhibition compared to 10 μM CP): suppression of Ca2+ current after 100 nM capsaicin, relative to maximum inhibition with 10 μM capsaicin (CP); for inhibition at 10 µM: read-out: VR1 (rat) (% inhibition compared to 10 μM CP); for EC50: agonistic action
T1 construct: host or cells: rat dorsal root ganglia primary cells (Ia) or CHO K1 cells stably transfected with the rat VR1 gene (Ib)
Procedure: The agonistic or antagonistic action of the substances to be studied on the vanilloid receptor 1 (VR1/TRPV1) of the rat species can be determined with the following assay. In this assay, the Ca^2+ current through the receptor channel is quantified with the aid of a Ca^2+-sensitive dye (Fluo-4 type, Molecular Probes Europe BV, Leiden the Netherlands) in a fluorescent imaging plate reader (FLIPR, Molecular Devices, Sunnyvale, USA).
Complete medium: 50 ml HAMS F12 Nutrient Mixture (Gibco Invitrogen GmbH, Karlsruhe, Germany) with
10% by volume of FCS (fetal calf serum, Gibco Invitrogen GmbH, Karlsruhe, Germany, heat-inactivated);
2 mM L-glutamine (Sigma, Munich, Germany);
1% by weight of AA solution (antibiotic/antimycotic solution, PAA, Pasching, Austria) and 25 ng/ml of NGF medium (2.5 S, Gibco Invitrogen GmbH, Karlsruhe, Germany)
Cell culture plate: poly-D-lysine-coated, black 96-hole plates with a clear bottom (96 well black/clear plate, BD Biosciences, Heidelberg, Germany) are additionally coated with laminin (Gibco Invitrogen GmbH, Karlsruhe, Germany) by diluting laminin to a concentration of 100 μg/ml with PBS (Ca—Mg-free PBS, Gibco Invitrogen GmbH, Karlsruhe, Germany). Aliquots having a concentration of 100 μg/ml of laminin are withdrawn and stored at −20° C. The aliquots are diluted with PBS in a ratio of 1:10 to 10 μg/ml of laminin and in each case 50 μl of the solution are pipetted into a well of the cell culture plate. The cell culture plates are incubated at 37° C. for at least two hours, the supernatant solution is removed by suction and the wells are each washed twice with PBS. The coated cell culture plates are stored with supernatant PBS which is not removed until directly before the application of the cells.
The spinal column is removed from beheaded rats and placed directly into cold HBSS buffer (Hank's buffered saline solution, Gibco Invitrogen GmbH, Karlsruhe, Germany), i.e. placed in an ice bath, which has been admixed with 1% by volume of an AA solution (antibiotic/antimycotic solution, PAA, Pasching, Austria). The spinal column is severed longitudinally and removed from the spinal canal together with fasciae. Subsequently, the dorsal root ganglia (DRGs) are removed and in turn stored in cold HBSS buffer admixed with 1% by volume of an […]. The DRGs freed completely of blood residues and spinal nerves are in each case transferred to 500 μl of cold type 2 collagenase (PAA, Pasching, Austria) and incubated at 37° C. for 35 minutes. After addition of 2.5% by volume of trypsin (PAA, Pasching, Austria), incubation is continued at 37° C. for a further 10 minutes. After complete incubation, the enzyme solution is cautiously pipetted off and the remaining DRGs are each admixed with 500 μl of complete medium.
The DRGs are each suspended repeatedly, drawn through cannulas No. 1, No. 12 and No. 16 by means of a syringe and transferred to 50 ml Falcon tubes which are made up to 15 ml with complete medium. The contents of each Falcon tube are in each case filtered through a 70 μm Falcon filter insert and centrifuged at 1200 revolutions and room temperature for 10 minutes. The resulting pellet is in each case taken up in 250 μl of complete medium and the cell count is determined.
The number of cells in the suspension is adjusted to 3 times 10^5 per ml and in each case 150 μl of this suspension are added to one well of the cell culture plates coated as described above. In the incubator, the plates are left to stand at 37° C., 5% by volume of CO2 and 95% relative air humidity for two to three days.
Subsequently, the cells are laden with 2 μM Fluo-4 and 0.01% by volume of Pluronic F127 (Molecular Probes Europe BV, Leiden, the Netherlands) in HBSS buffer (Hank's buffered saline solution, Gibco Invitrogen GmbH, Karlsruhe, Germany) at 37° C. for 30 min, washed 3× with HBSS buffer and, after a further incubation of 15 minutes, used in the FLIPR assay at room temperature for Ca^2+ measurement. […]

[2] = biological target: T2, human vanilloid receptor 1 (VR1) (Homo sapiens, UniProt Q8NER1); assay: FLIPR Ca2+ functional study on human vanilloid receptor 1 (CHO K1 cells transfected with human VR1); assay type: cell-based; settings: for inhibition at 10 µM: CHO-K1, read-out: VR1 (human) (% inhibition compared to 10 μM CP); for inhibition at 10 µM / VR1 (human) (% inhibition compared to 10 μM CP): test compound 10 μM, suppression of Ca2+ current after 100 nM capsaicin, relative to maximum inhibition with 10 μM capsaicin (CP); for EC50: agonistic action
T2 construct: expressed in transfected cells; host or cells: CHO K1 cells (ECACC), stably transfected
Procedure: Chinese hamster ovary cells (CHO K1 cells, European Collection of Cell Cultures (ECACC), England) are transfected stably with the human vanilloid receptor 1 (VR1) gene or the vanilloid receptor 1 (VR1) gene of the rat. For functional studies, these cells are plated out onto poly-D-lysine-coated black 96-well plates with a clear bottom (BD Biosciences, Heidelberg, Germany) in a density of 25 000 cells/well. The cells are incubated overnight at 37° C. and 5% CO2 in culture medium (Ham's Nutrient Mixture F12, Gibco Invitrogen GmbH, Karlsruhe, Germany) with 10% by volume of FBS (fetal bovine serum, Gibco Invitrogen GmbH, Karlsruhe, Germany), and 18 μg/ml of L-proline (Gibco Invitrogen GmbH, Karlsruhe, Germany). The next day, the cells are laden with 2 μM Fluo-4 and 0.01% by volume of Pluronic F127 (Molecular Probes Europe BV, Leiden, The Netherlands) in HBSS buffer (Hank's buffered saline solution, Gibco Invitrogen GmbH, Karlsruhe, Germany) at 37° C. for 30 min. Subsequently, the plates are washed 3 times with HBSS buffer and, after a further incubation of 15 minutes at room temperature, used for Ca^2+ measurement in the FLIPR assay. The Ca^2+-dependent fluorescence is measured before and after addition of substances λex=488 nm, λem=540 nm). The quantification is effected by measuring the highest fluorescence intensity (FC, fluorescence counts) over the time.
The FLIPR protocol consists of 2 substance additions. First, the compounds to be tested (10 μM) are pipetted onto the cells obtained according to Ia or Ib and the Ca^2+ current is compared with the control (capsaicin 10 μM). This gives rise to the result in % activation based on the Ca^2+ signal after addition of 10 μM capsaicin (CP). After incubation for 5 minutes, 100 nM capsaicin is applied and the current of Ca^2+ is likewise determined.
Desensitizing agonists and antagonists lead to a suppression in the Ca^2+ current. % inhibition is calculated compared to the maximum achievable inhibition with 10 μM capsaicin.
Triple determinations (n=3) are performed and they are repeated in at least 3 independent experiments (N=4).

T1 sequence (O35433 whole entry): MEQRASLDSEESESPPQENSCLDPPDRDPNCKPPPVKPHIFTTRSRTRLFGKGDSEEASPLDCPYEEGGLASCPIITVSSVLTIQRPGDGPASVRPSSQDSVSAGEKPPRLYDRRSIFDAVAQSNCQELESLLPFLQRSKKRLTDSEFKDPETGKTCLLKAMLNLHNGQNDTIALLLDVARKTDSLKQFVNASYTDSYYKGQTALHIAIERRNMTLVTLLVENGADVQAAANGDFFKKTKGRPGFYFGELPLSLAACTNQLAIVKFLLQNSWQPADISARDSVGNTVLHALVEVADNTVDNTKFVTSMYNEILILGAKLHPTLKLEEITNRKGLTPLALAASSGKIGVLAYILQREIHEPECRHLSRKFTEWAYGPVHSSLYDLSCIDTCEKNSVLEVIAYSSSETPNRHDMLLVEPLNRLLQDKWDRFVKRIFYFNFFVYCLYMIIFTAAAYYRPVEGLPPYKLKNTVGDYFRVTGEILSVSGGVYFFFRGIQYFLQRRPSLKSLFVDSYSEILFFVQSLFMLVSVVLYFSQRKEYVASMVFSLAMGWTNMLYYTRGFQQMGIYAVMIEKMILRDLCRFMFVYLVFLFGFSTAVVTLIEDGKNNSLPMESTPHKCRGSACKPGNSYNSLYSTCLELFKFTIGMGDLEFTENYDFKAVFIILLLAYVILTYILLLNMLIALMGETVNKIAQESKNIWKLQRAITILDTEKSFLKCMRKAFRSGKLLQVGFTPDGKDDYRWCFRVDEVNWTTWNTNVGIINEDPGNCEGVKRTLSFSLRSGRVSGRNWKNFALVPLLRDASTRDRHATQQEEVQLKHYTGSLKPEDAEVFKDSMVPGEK
T2 sequence (Q8NER1 whole entry): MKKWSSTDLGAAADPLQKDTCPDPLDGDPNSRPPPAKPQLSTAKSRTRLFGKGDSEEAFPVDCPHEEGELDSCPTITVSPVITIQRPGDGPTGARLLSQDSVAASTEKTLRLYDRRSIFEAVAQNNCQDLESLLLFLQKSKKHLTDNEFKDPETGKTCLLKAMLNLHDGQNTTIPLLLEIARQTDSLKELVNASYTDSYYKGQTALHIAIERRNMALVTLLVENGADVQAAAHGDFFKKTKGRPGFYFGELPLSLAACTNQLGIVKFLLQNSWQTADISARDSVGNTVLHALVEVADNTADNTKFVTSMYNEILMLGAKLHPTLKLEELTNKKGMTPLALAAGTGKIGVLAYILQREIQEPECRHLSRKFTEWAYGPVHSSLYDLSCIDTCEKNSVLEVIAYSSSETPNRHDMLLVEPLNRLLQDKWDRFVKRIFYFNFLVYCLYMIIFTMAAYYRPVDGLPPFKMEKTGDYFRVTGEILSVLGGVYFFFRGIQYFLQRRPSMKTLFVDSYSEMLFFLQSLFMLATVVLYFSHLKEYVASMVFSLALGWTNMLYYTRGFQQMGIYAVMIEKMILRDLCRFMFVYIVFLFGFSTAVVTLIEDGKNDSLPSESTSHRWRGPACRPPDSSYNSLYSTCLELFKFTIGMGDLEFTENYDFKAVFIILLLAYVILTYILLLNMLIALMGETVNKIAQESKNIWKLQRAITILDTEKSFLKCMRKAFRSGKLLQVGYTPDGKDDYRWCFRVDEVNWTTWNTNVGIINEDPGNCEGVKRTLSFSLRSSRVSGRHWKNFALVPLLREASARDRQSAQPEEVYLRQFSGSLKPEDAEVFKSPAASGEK

activation at 10 µM [1] | inhibition at 10 µM [1] | inhibition at 10 µM [2] | EC50 ([1]; FLIPR) | EC50 ([2]; FLIPR) | melting point | VR1 (rat) (% stimulation compared to 10 μM CP) [1] | VR1 (rat) (% inhibition compared to 10 μM CP) [1] | VR1 (human) (% inhibition compared to 10 μM CP) [2] | Compound | also measured
0.81% | 40.3% | 23.8% |  |  |  |  |  |  | Cc1cccc2c1SCC(CO)(COS(=O)(=O)c1ccc(C(C)(C)C)cc1)C2=O (stereo not shown) [Example Compound 13, 4-tert-butylbenzenesulfonic acid 3-hydroxymethyl-8-methyl-4-oxo-thiochroman-3-ylmethyl ester] | 
67% | 106% | 96.6% | 4.1 µM | 1.4 µM |  |  |  |  | Cc1cccc2c1C(=O)C(COC(=O)Nc1ccccc1)(COC(=O)Nc1ccccc1)CS2 [Example Compound 40, (5-methyl-4-oxothiochroman-3,3-diyl)bis(methylene)bis(phenylcarbamate)] | 
38% | 14% | 95% | 2.4 µM | 0.995 µM |  |  |  |  | O=C(Nc1ccccc1)OCC1(COC(=O)Nc2ccccc2)CSc2ccccc2C1=O [Example Compound 41, 3,3-bis(phenylcarbamoyloxymethyl)thiochroman-4-one] | 
37.8% | 41.1% | 73.2% | 9.95 µM | 3.05 µM | 58 to 63 °C |  |  |  | COc1ccc(NC(=O)OCC2(COC(=O)Nc3ccc(OC)cc3)CSc3ccccc3C2=O)cc1 [Example Compound 42, 3,3-bis(4-methoxyphenylcarbamoyloxymethyl)thiochroman-4-one] | 
48.5% | 83.9% | 9.79% | 25.4 µM | 9 µM | 72 to 78 °C |  |  |  | O=C(Nc1ccccc1)OCC1(COC(=O)Nc2ccccc2)CS(=O)(=O)c2ccccc2C1=O [Example Compound 43, 3,3-bis(phenylcarbamoyloxymethyl)-1,1-dioxo-1λ^6-thiochroman-4-one] | 
25% | 96.8% | 38.5% | 13.8 µM | 6.4 µM |  |  |  |  | Cc1cccc2c1C(=O)C(COC(=O)Nc1ccccc1)(COC(=O)Nc1ccccc1)CS2(=O)=O [Example Compound 46, 3,3-bis(phenylcarbamoyloxymethyl)-5-methyl-1,1-dioxo-1λ^6-thiochroman-4-one] | 
 |  |  |  |  | 62 to 68 °C |  |  |  | CC(C)(C)c1ccccc1NC(=O)OCC1(COC(=O)Nc2ccccc2C(C)(C)C)CSc2ccccc2C1=O [Example Compound 51, 3,3-bis(2-tert-butylphenylcarbamoyloxymethyl)thiochroman-4-one] | 
 |  |  |  |  | 76 to 82 °C |  |  |  | O=C(Nc1ccc(C(F)(F)F)cc1)OCC1(COC(=O)Nc2ccc(C(F)(F)F)cc2)CSc2ccccc2C1=O [Example Compound 52, 3,3-bis(4-trifluoromethylphenylcarbamoyloxymethyl)thiochroman-4-one] | 
 |  |  |  |  | 58 to 63 °C |  |  |  | O=C(Nc1cccc(C(F)(F)F)c1)OCC1(COC(=O)Nc2cccc(C(F)(F)F)c2)CSc2ccccc2C1=O [Example Compound 54, 3,3-bis(3-trifluoromethylphenylcarbamoyloxymethyl)thiochroman-4-one] | 
 |  |  |  |  |  | 94.65% | 44.38% | 80.26% | (6-fluoro-4-oxothiochroman-3,3-diyl)bis(methylene)bis(3-(trifluoromethyl)phenylcarbamate) [Example Compound 30] | 
 |  |  |  |  |  | 22.05% | 38.68% | 83.36% | (7,8-dichloro-4-oxothiochroman-3,3-diyl)bis(methylene)bis(2-(trifluoromethyl)phenylcarbamate) [Example Compound 31] | 
 |  |  |  |  |  | 88.01% | 100.80% | 91.55% | (7,8-dichloro-4-oxothiochroman-3,3-diyl)bis(methylene)bis(3-(trifluoromethyl)phenylcarbamate) [Example Compound 29] | 
 |  |  | 5.86 µM | 0.99 µM |  | 109.36% | 119.74% | 88.33% | (7-methyl-4-oxothiochroman-3,3-diyl)bis(methylene)bis(phenylcarbamate) [Example Compound 39] | 
 |  |  |  |  |  | 17.64% | 61.99% | 69.64% | (8-chloro-4-oxothiochroman-3,3-diyl)bis(methylene)bis(2-(trifluoromethyl)phenylcarbamate) [Example Compound 14] | 
 |  |  |  |  |  | 47.96% | 107.78% | 88.98% | (8-chloro-4-oxothiochroman-3,3-diyl)bis(methylene)bis(3-(trifluoromethyl)phenylcarbamate) [Example Compound 20] | IC50 ([1]; FLIPR, antagonistic action): 6.44 µM; IC50 ([2]; FLIPR, antagonistic action): 5.78 µM
